Earlier results, collected in patent US7094805B2, “Total synthesis of merrilactone A” (The Trustees of Columbia University in the City of New York, priority 2001, dated 2006).

System: fetal rat cortical neurons

C[C@@]12COC(=O)[C@]1(C)[C@@H]1O[C@]3(C)[C@@H](O)C[C@]24OC(=O)C[C@]143 (racemic) [compound 1, merrilactone A]
promotion of neurite outgrowth (general statement): promote neurite outgrowth
concentrations at which neurite outgrowth is greatly promoted (preliminary studies, natural merrilactone A, "at concentrations as low as"): 0.1 to 10 µmol
